Like-named read-outs stand apart in the source and are kept apart here.
Assays:
[1] = LD50 (toxicity); conditions: rat, in vivo, rats
[2] = tested on: ethionine-induced pancreatitis (serum amylase); assay: Effect on serum amylase elevation in ethionine-induced severe pancreatitis; format: in vivo, female BALB/c mice; conditions: for serum amylase level, 0 Hr: 0 Hr (start of ethionine-supplemented food, before dosing at 12 h); for serum amylase level, 0 Hr / serum amylase level, 24 Hr / serum amylase level, 48 Hr: p.o., EPC-K 141 mg/10 ml/kg, camostat 100 mg/10 ml/kg, mean ± S.E.; for serum amylase level, 24 Hr: 24 h after beginning of ethionine-supplemented food; for serum amylase level, 48 Hr: 48 h after beginning of ethionine-supplemented food, *1 (EPC-K): p < 0.01 vs distilled water
Description: The therapeutic efficacy of the compound was tested in ethionine-induced pancreatitis which is a model of severe human pancreatitis. The efficacy evaluation was based on the degree of inhibition of the release of amylase into blood which is an indicator of pancreatitis.
(1) Investigational Substance
L-Ascorbyl DL-α-tocopheryl phosphate potassium (briefly, EPC-K) 141 mg/10 ml/kg, p.o.
Camostat monomethanesulfonate (Ono Pharmaceutical) 100 mg/10 ml/kg, p.o.
Animals used: Thirty female BALB/c mice weighing about 18 g as purchased from Japan SLC were used in this experiment. The mice were accommodated in an animal room controlled at 24°±4° C. and 55±15% R. H. and while the animals in the ethionine-induced pancreatitis groups were given low-choline, 0.54 ethionine-supplemented food (prepared by SLC) ad libitum, the animals in the untreated control group were given Labo MR Stock (tradename) (Nihon Nosan Kogyo) ad libitum. Water was freely available for animals in the ethionine pancreatitis groups and the untreated group. The mice were deprived of food 12 hours before commencement of feeding.
Method: Each test substance was administered 12 hours after the beginning of intake of ethionine-supplemented food. Blood sampling was made 24 and 48 hours after the beginning of intake of ethionine-supplemented food and the serum amylase levels were determined.

Row | SMILES | LD50 ([1]; iv, i.v., read-out: LD50 i.v.) [mg/kg] | LD50 ([1]; po, p.o., read-out: LD50 p.o.) [mg/kg] | serum amylase level, 0 Hr [2] [mU/ml] | serum amylase level, 24 Hr [2] [mU/ml] | serum amylase level, 48 Hr [2] [mU/ml] | inhibition of serum amylase elevation (in words) ([2]; 48 h, compared with distilled water group)
1 | Cc1c(C)c2c(c(C)c1OP(=O)(O)OC1=C(O)[C@@H]([C@@H](O)CO)OC1=O)CCC(C)(CCCC(C)CCCC(C)CCCC(C)C)O2 (mixture of isomers) [EPC-K, L-Ascorbyl DL-α-tocopheryl phosphate potassium] | ≥ 100 | ≥ 5000 | 14573 ± 3132 | 12926 ± 2217 | 16257 ± 9763 | 
2 | CN(C)C(=O)COC(=O)Cc1ccc(OC(=O)c2ccc(NC(=N)N)cc2)cc1 [Camostat monomethanesulfonate] |  |  | 13978 ± 1012 | 12628 ± 1542 | 36288 ± 13921 | no inhibitory effect on amylase elevation

Source: patent publication US5650404A, “Therapeutic composition for pancreatitis” (Senju Pharmaceutical Co., Ltd., priority 1994, dated 1997)
